Measurements: publication PMC10035387 (Cancer Research Communications, 2022)
Read-outs that look alike come from different tables or passages of the source.

Assays:
[1] = test system: cytochrome P450 (CYP) 2C8 and CYP3A4; set-up: method as in earlier work; conditions: cited from earlier work
[2] = test system: Panc265 model; conditions: cited from earlier work
[3] = test system: metastatic pancreatic cancer; conditions: cited from earlier work; for Median OS: P < 0.001; for Efficacy in randomized clinical trials: patients with PDAC
[4] = Phase Ib study: adverse events, dose-limiting toxicities, MTD
Procedure: The criteria for dose escalation were based on a modified toxicity probability method ([20]), using a statistical probability algorithm calculated with all patients treated at the same dose level. […] The study was conducted in accordance with legal and regulatory requirements and the Declaration of Helsinki. Prior to participant enrollment, the study was approved by the Institutional Review Board/Ethics Committee at each site at which it was conducted. Patients provided written informed consent before any study procedures were performed.

[5] = test system: phospho-Rb (pRb); experiment: pRb IHC in serial paired skin biopsy specimens; assay type: in vivo, human; conditions: skin biopsies
[6] = test system: Ki67; experiment: Ki67 IHC in serial paired skin biopsy specimens; assay type: in vivo, human; conditions: skin biopsies
[7] = human, in vivo
Description: (§1) Other outcomes included safety, pharmacokinetics, pharmacodynamics, tissue/blood biomarkers, objective tumor response, progression-free survival (PFS), and OS assessments.

[8] = cited from earlier work
[9] = test system: PDAC cell lines that retain RB1 expression; set-up: method as in PMID 29080858; conditions: cited from earlier work
[10] = Phase Ib study: plasma pharmacokinetics; conditions: steady state, overall population
Description: as §1

[11] = after 2 weeks of palbociclib treatment, first-line MTD group
[12] = after a further 2 weeks of palbociclib treatment
[13] = after the 1-week palbociclib break, before cycle 2
[14] = PALOMA-1, patients with breast cancer
[15] = PALOMA-2, patients with breast cancer

Which Metabolizing enzymes [1] does the source give for `CC(=O)O[C@H]1C(=O)[C@@]2(C)[C@H]([C@H](OC(=O)c3ccccc3)[C@]3(O)C[C@H](OC(=O)[C@H](O)[C@@H](NC(=O)c4ccccc4)c4ccccc4)C(C)=C1C3(C)C)[C@]1(OC(C)=O)CO[C@@H]1C[C@@H]2O` [Paclitaxel] here?
The Metabolizing enzymes was “metabolized primarily by cytochrome P450 (CYP) 2C8 and CYP3A4”.

Which “Sensitivity of Panc265 model” value [2] does the source give for `CCc1cnn2c(NCc3ccc[n+]([O-])c3)cc(N3CCCC[C@H]3CCO)nc12` [dinaciclib] here?
Its value is “sensitive”.

For `Nc1ccn([C@@H]2O[C@H](CO)[C@@H](O)C2(F)F)c(=O)n1` [gemcitabine], which “Median OS” value ([3]; FOLFIRINOX versus gemcitabine) is on record?
The value was 6.8 months.

What about the “Median OS” value ([3]; GA versus gemcitabine alone, metastatic pancreatic cancer) of the same molecule?
Its value is 6.7 months.

For `CC(=O)c1c(C)c2cnc(Nc3ccc(N4CCNCC4)cn3)nc2n(C2CCCC2)c1=O` [palbociclib], which “Permanent discontinuation of palbociclib due to bacterial gastritis” value ([4]; all patients) is on record?
Its value is 1.3%.

And the “Permanent discontinuation of palbociclib due to infection” value ([4]; all patients)?
The value was 1.3%.

What about the “Permanent discontinuation of palbociclib due to sepsis” value ([4]; all patients) of the same molecule?
Its value is 1.3%.

What about the MTD of palbociclib ([4]; for 21 of every 28 days, with nab-paclitaxel) of the same molecule?
The MTD of palbociclib was 100 mg.

And the pRb level [5, 11]?
The pRb level was “decreased”.

What about the pRb level [5, 12] of the same molecule?
The pRb level was “decreased again to below baseline”.

And the pRb level [5, 13]?
The pRb level was “rebounded to baseline or higher levels”.

And the Ki67 level [6, 11]?
The Ki67 level was “decreased”.

What about the Ki67 level [6, 12] of the same molecule?
Its Ki67 level is “decreased again to below baseline”.

What about the Ki67 level [6, 13] of the same molecule?
Its Ki67 level is “rebounded to baseline or higher levels”.

What about the “CL/F, geometric mean” value [7] of the same molecule?
The value was 79.95 L/h.

And the “CL/F, median” value [7]?
Its value is 74.10 L/h.

And the “Ctrough, geometric mean” value [7]?
Its value is 34.89 ng/mL.

And the “Ctrough, median” value [7]?
Its value is 34.60 ng/mL.

And the “tmax, median” value [7]?
The value was 4.17 h.

What about the Clinical activity ([3]; CDKN2A-mutated advanced pancreatic cancer) of the same molecule?
Its Clinical activity is “did not have meaningful clinical activity”.

And the AUCτ [8, 14]?
Its AUCτ is 1,933 ng·hour/mL.

What about the Cmax [8, 14] of the same molecule?
Its Cmax is 108 ng/mL.

And the AUCτ [8, 15]?
The AUCτ was 1,992 ng·hour/mL.

What about the Cmax [8, 15] of the same molecule?
The Cmax was 110 ng/mL.

What about the “Effect on PDAC cell lines” value [9] of the same molecule?
Its value is “induces cell-cycle arrest and apoptosis”.

And the “Dose-normalized geometric mean AUCτ” value [10]?
Its value is 1,569 ng·hour/mL.

What about the “Dose-normalized geometric mean Cmax” value [10] of the same molecule?
The value was 90.44 ng/mL.

For FOLFIRINOX, which “Median OS” value ([3]; FOLFIRINOX versus gemcitabine) is on record?
Its value is 11.1 months.

B1: pegilodecakin: agent not efficacious in randomized clinical trials in PDAC (protein, UniProt P22301 19-178, looked up)
Interleukin-10: SPGQGTQSENSCTHFPGNLPNMLRDLRDAFSRVKTFFQMKDQLDNLLLKESLLEDFKGYLGCQALSEMIQFYLEEVMPQAENQDPDIKAHVNSLGENLKTLRLRLRRCHRFLPCENKSKAVEQVKNAFNKLQEKGIYKAMSEFDIFINYIEAYMTMKIRN
modifications: PEGylated
For B1, which “Efficacy in randomized clinical trials” value [3] is on record?
The value was “not efficacious”.

B2: PEGPH20: agent not efficacious in randomized clinical trials in PDAC (protein, UniProt P38567 36-490, looked up)
Hyaluronidase PH-20: LNFRAPPVIPNVPFLWAWNAPSEFCLGKFDEPLDMSLFSFIGSPRINATGQGVTIFYVDRLGYYPYIDSITGVTVNGGIPQKISLQDHLDKAKKDITFYMPVDNLGMAVIDWEEWRPTWARNWKPKDVYKNRSIELVQQQNVQLSLTEATEKAKQEFEKAGKDFLVETIKLGKLLRPNHLWGYYLFPDCYNHHYKKPGYNGSCFNVEIKRNDDLSWLWNESTALYPSIYLNTQQSPVAATLYVRNRVREAIRVSKIPDAKSPLPVFAYTRIVFTDQVLKFLSQDELVYTFGETVALGASGIVIWGTLSIMRSMKSCLLLDNYMETILNPYIINVTLAAKMCSQVLCQEQGVCIRKNWNSSDYLHLNPDNFAIQLEKGGKFTVRGKPTLEDLEQFSEKFYCSCYSTLSCKEKADVKDTDAVDVCIADGVCIDAFLKPPMETEEPQIFYNASPSTLS
modifications: PEGylated; pegvorhyaluronidase alfa
Which “Efficacy in randomized clinical trials” value [3] does the source give for B2 here?
Its value is “not efficacious”.
